Data reported in article PMC4028696, “Development of a screen to identify selective small molecules active against patient-derived metastatic and chemoresistant breast cancer cells” (Breast Cancer Research : BCR, 2013).

Experiments:
Type in all cases: cell-based, human
[1] = tested on: cleaved caspase-3, caspase-8, cleaved caspase-9, and PARP; test: Western blot for caspase and PARP cleavage; settings: 30 μM, 48 hours, cell lines, hTERT-HMEC and PE cells
Method: Cells were lysed in cold radioimmunoprecipitation assay buffer (50 mM Tris HCl, 150 mM NaCl, 0.1% sodium dodecyl sulfate (SDS), 0.5% sodium deoxycholate, 1% Triton X-100, pH = 8.0) supplemented with protease inhibitor cocktail (Sigma), phosphatase inhibitor cocktail 2 (Sigma) and 1 mM dithiothreitol (DTT) (Sigma). The lysate was sonicated for 30 seconds using a 450 Sonifier (Branson Ultrasonics, Danbury, CT, USA) and was centrifuged at 14,000 RPM for five minutes at 4°C. The protein concentration was determined using the BCA protein assay kit (Peirce, Rockford, IL, USA) and the samples were boiled for five minutes with 4× SDS Laemmli buffer. Equal amounts of protein were resolved on SDS polyacrylamide gels and transferred to an Immobilon-FL PVDF membrane (EMD Millipore). Blots were blocked in Odyssey Blocking Buffer (LI-COR, Lincoln, NE, USA) for one hour at room temperature, stained with primary antibodies overnight at 4°C, washed, and stained with IR800CW or IR680 anti-mouse or rabbit secondary antibodies (LI-COR) for one hour at room temperature. Blots were imaged with the Odyssey Infrared Imaging System (LI-COR). […]

[2] = tested on: PE904557a, PE900642a and PE1100025 cells; test: Live/dead assay, three-dimensional Matrigel culture; settings: 30 or 60 μM, five days
Method: For the three dimensional culture experiments, PE904557a, PE900642a and PE11000025 cells were seeded in a 24-well ultra low adhesion plate (Costar) at approximately 2 × 10^6 cells/mL in mammary epithelial cell growth medium (MEGM) complete media (Lonza, Basel Switzerland) and were cultured overnight. The resulting aggregates were separated from single cells by differential centrifugation. Next, 20 μL of growth factor reduced Matrigel (BD Biosciences) was added to each well of a black walled clear bottom 24-well plate (Greiner Bio-one) and was allowed to solidify to form a base layer. The aggregates were then suspended in Matrigel on ice and approximately 300 aggregates in 40 μL were added to each well. After the Matrigel solidified, modified M87 media was added to each well and the cells were cultured overnight. The media were subsequently aspirated and the cells were treated with 30 or 60 μM C-6 or the corresponding 0.06% (v/v) DMSO vehicle control. After culturing for five days, the viability and cytotoxicity were determined utilizing the Live/dead assay (Life Technologies) in the same manner as described above. Multiple Z-planes of the organoids were subsequently imaged utilizing an IX81 microscope (Olympus) running Slide Book 5.0 software (Intelligent Imaging Innovations).

PE1008032 cells = test: AAF-Glo released protease (cell death) assay; settings: PE1008032, 30 μM, 24 to 120 hours
Method: (§1) Adherent cells were seeded in two identical white 96-well plates (Costar) in 100 μL of their respective media at varying densities to achieve 80% to 90% confluency at the end of the assay. After 24 hours, the media were aspirated and the cells were treated with 30 μM C-6 or a matched 0.03% (v/v) DMSO vehicle control in the corresponding media containing 2% FBS. For suspension cultures, cells were first seeded in 75 μL of media. At the start of treatment, 25 μL of a 4× concentration of C-6 or a matched (v/v) DMSO vehicle control was added to each well such that the final volume in each well was 100 μL and the final concentration of C-6 was 30 μM. For the caspase activity assays, additional wells were treated with 1 μM staurosporine. After culturing for the appropriate amount of time, either the AAF-Glo or Caspase-Glo assays (Promega, Madison, WI, USA) were performed on one 96-well plate according to the manufacturer's instructions. For the Caspase-Glo assay, cell viability was determined for the additional 96-well plate utilizing the ATPlite 1step assay system (Perkin Elmer) according to the manufacturer's instructions. For the AAF-Glo assay, the total protein in each well of the additional plate was measured using the BCA protein assay kit (Peirce, Rockford, IL, USA). Luminescence measurements were acquired utilizing a Perkin Elmer 2104 EnVision plate reader. Raw luminescence values for each assay were normalized to the DMSO vehicle control wells. The values for the Caspase-Glo or AAF-Glo assays were then normalized to the ATPlite values or total protein, respectively, in order to account for differences in cell numbers and were plotted as an average ± SD of four wells per condition.

[3] = tested on: PE cells from three different patients; test: AAF-Glo released protease (cell death) assay; settings: 30 μM, 24 to 120 hours, vs DMSO
Method: as §1

MCF-7 cells = test: AAF-Glo released protease (cell death) assay; settings: MCF-7, 30 μM, 24 to 120 hours, vs DMSO
Method: as §1

MDA-MB-231 cells = test: AAF-Glo released protease (cell death) assay; settings: MDA-MB-231, 30 μM, 24 to 120 hours
Method: as §1

MCF-10A cells = test: AAF-Glo released protease (cell death) assay; settings: 30 μM, 24 to 120 hours, vs DMSO
Method: as §1

For `COc1cc(OC)cc(C(C)c2ccc(NC(=O)OC(C)(C)C)cc2)c1` (stereo not shown) [C-6], the “cleavage of caspase-3, -8, -9, or PARP” value [1] was “did not induce cleavage”, the “cell death in three-dimensional culture” value [2] was “able to induce cell death” and the “relative AAF-Glo activity” value (PE1008032 cells) was “did not have increased AAF-Glo activity”. For the same compound, the “relative AAF-Glo activity” value [3] was “significant increase”, the “relative AAF-Glo activity” value (MCF-7 cells) was “significant increase” and the “relative AAF-Glo activity” value (MDA-MB-231 cells) was “did not have increased AAF-Glo activity”. For the same compound, the “relative AAF-Glo activity” value (MCF-10A cells) was “did not cause an increase”.
